{"source": "ChEMBL document CHEMBL5352465", "about": "“Small molecules containing chalcogen elements (S, Se, Te) as new warhead to fight neglected tropical diseases” (Eur J Med Chem, 2023)", "key": {"[1]": {"system": "Trypanosoma cruzi", "test": "Antitrypanosomal activity against Trypanosoma cruzi epimastigote assessed as parasite growth inhibition by optical density based analysis", "assay_type": "functional, organism-based"}, "[2]": {"target": "Cruzipain (Trypanosoma cruzi) (UniProt P25779)", "sequence (P25779 123-467 limits assumed)": "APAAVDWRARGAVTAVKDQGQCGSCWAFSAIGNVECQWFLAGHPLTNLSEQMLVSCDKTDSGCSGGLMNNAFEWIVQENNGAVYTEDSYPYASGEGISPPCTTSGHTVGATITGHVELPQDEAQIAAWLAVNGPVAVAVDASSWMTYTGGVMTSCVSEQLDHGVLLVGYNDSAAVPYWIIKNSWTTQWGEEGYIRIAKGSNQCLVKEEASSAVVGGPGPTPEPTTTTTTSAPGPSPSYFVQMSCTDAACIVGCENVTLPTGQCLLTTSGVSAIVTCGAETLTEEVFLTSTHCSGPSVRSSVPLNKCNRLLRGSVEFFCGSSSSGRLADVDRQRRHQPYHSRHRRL", "test": "Inhibition of Trypanosoma cruzi recombinant Cruzaine using Z-FR-AMC as substrate preincubated for 10 mins followed by substrate addition by fluorimeter analysis"}, "[3]": {"system": "Leishmania infantum", "test": "Antileishmanial activity against Leishmania infantum promastigotes assessed as reduction in cell viability incubated for 24 hrs by propidium iodide staining based flow cytometry assay", "assay_type": "functional, organism-based"}, "[4]": {"system": "Trypanosoma cruzi", "test": "Antitrypanosomal activity against bloodstream Trypanosoma cruzi Y strain trypomastigotes assessed as parasite growth inhibition incubated for 24 hrs by light microscopic analysis", "assay_type": "functional, organism-based"}, "[5]": {"system": "Trypanosoma cruzi", "test": "Antitrypanosomal activity against Trypanosoma cruzi Tulahuen strain trypomastigotes assessed as parasite growth inhibition incubated for 18 hrs by light microscopic analysis", "assay_type": "functional"}, "[6]": {"system": "Leishmania panamensis", "test": "Antileishmanial activity against Leishmania panamensis MHOM/CO/87/UA140-EpiR-GFP strain promastigotes assessed as inhibition of parasite growth incubated for 72 hrs by flow cytometric analysis", "assay_type": "functional, organism-based"}, "[7]": {"system": "Leishmania panamensis", "test": "Antileishmanial activity against Leishmania panamensis MHOM/CO/87/UA140-EpiR-GFP strain amastigotes assessed as inhibition of parasite growth incubated for 72 hrs by flow cytometric analysis", "assay_type": "functional, organism-based"}, "[8]": {"system": "Trypanosoma brucei gambiense", "test": "Antitrypanosomal activity against bloodstream Trypanosoma brucei gambiense assessed as parasite growth inhibition measured after 72 hrs by resazurin staining based analysis", "assay_type": "functional, organism-based"}, "[9]": {"system": "Trypanosoma brucei", "test": "Antitrypanosomal activity against bloodstream Trypanosoma brucei assessed as parasite growth inhibition measured after 72 hrs by resazurin staining based analysis", "assay_type": "functional, organism-based"}, "[10]": {"test": "Selectivity index, ratio of CC50 for rat L6 cells to IC50 for antitrypanosomal activity against bloodstream Trypanosoma brucei", "assay_type": "toxicity", "details": "read-out: Ratio CC50/IC50"}, "[11]": {"test": "Selectivity index, ratio of CC50 for rat L6 cells to IC50 for antitrypanosomal activity against bloodstream Trypanosoma brucei gambiense", "assay_type": "toxicity", "details": "read-out: Ratio CC50/IC50"}, "[12]": {"system": "Leishmania tropica", "test": "Antileishmanial activity against Leishmania tropica promastigotes assessed as inhibition of parasite growth", "assay_type": "functional, organism-based"}, "[13]": {"system": "Trypanosoma brucei", "test": "Antitrypanosomal activity against bloodstream Trypanosoma brucei 427 strain assessed as parasite growth inhibition measured after 24 hrs by propidium iodide staining based flow cytometer method", "assay_type": "functional, organism-based", "details": "Trypanosoma brucei, 427, 24 h"}, "[14]": {"system": "Leishmania aethiopica", "test": "Antileishmanial activity against Leishmania aethiopica amastigotes assessed as inhibition of parasite growth measured after 24 hrs by Alamar blue based analysis", "assay_type": "functional, organism-based"}, "[15]": {"system": "Leishmania donovani", "test": "Antileishmanial activity against Leishmania donovani promastigotes assessed as inhibition of parasite growth measured after 24 hrs by Alamar blue based analysis", "assay_type": "functional, organism-based"}, "[16]": {"system": "Trypanosoma cruzi", "test": "Antitrypanosomal activity against Trypanosoma cruzi Y strain epimastigotes assessed as parasite growth inhibition incubated for 48 hrs by spectrophotometric analysis", "assay_type": "functional, organism-based"}, "[17]": {"system": "Leishmania amazonensis", "test": "Antileishmanial activity against Leishmania amazonensis promastigotes assessed as inhibition of parasite growth", "assay_type": "functional, organism-based"}, "[18]": {"system": "Leishmania braziliensis", "test": "Antileishmanial activity against Leishmania braziliensis promastigotes assessed as inhibition of parasite growth", "assay_type": "functional, organism-based"}, "[19]": {"test": "Selectivity index, ratio of LC50 for human U-937 cells to ratio of IC50 for antileishmanial activity against Leishmania panamensis MHOM/CO/87/UA140-EpiR-GFP strain promastigotes", "assay_type": "toxicity", "details": "read-out: Ratio LC50/IC50"}, "[20]": {"system": "Leishmania amazonensis", "test": "Antileishmanial activity against Leishmania amazonensis amastigotes assessed as inhibition of parasite growth", "assay_type": "functional, organism-based"}, "[21]": {"test": "Selectivity index, ratio of CC50 for human CC cells to ratio of IC50 for antileishmanial activity against Leishmania major promastigote", "assay_type": "toxicity", "details": "read-out: Ratio CC50/IC50"}, "[22]": {"system": "Trypanosoma cruzi", "test": "Antitrypanosomal activity against bloodstream Trypanosoma cruzi Y strain trypomastigotes assessed as parasite growth inhibition incubated for 24 hrs by Neubauer chamber based light microscopic analysis", "assay_type": "functional, organism-based"}, "[23]": {"test": "Selectivity index, ratio of CC50 for cytotoxicity against Swiss mouse peritoneal macrophages to IC50 for antitrypanosomal activity against bloodstream Trypanosoma cruzi Y strain trypomastigotes", "assay_type": "toxicity", "details": "read-out: Ratio CC50/IC50"}, "[24]": {"test": "Selectivity index, ratio of CC50 for […] to ratio of IC50 for antileishmanial activity against Leishmania infantum promastigote", "assay_type": "toxicity, cell-based", "details": "read-out: Ratio CC50/IC50"}}, "note": "pIC50: −log10 of the molar value."}
{"smiles": "NC(=S)N/N=C/c1ccc[nH]1", "values": [{"measurement": "pIC50", "setting": "[1]", "result": 4.57}, {"measurement": "inhibition", "setting": "[2]", "result": 70, "unit": "%"}]}
{"smiles": "CCc1cc(-c2csc(-c3ccc(-n4ccnc4CNCCN)cc3OCCN3CCNC3=O)n2)ccc1-c1ccccc1", "values": [{"measurement": "pIC50", "setting": "[3]", "result": 5.07}]}
{"smiles": "CC(c1cccc2ccccc12)n1cc(CCOc2ccc(-c3ccc(-c4nc5ccc(C(=N)N)cc5[nH]4)s3)cc2)nn1", "note": "(centres undefined)", "values": [{"measurement": "pIC50", "setting": "[4]", "result": 5.51}, {"measurement": "IC90", "setting": "[5]", "result": 7.78, "unit": "µM"}]}
{"smiles": "O=C1C=C(c2ccc(C(F)(F)F)cc2)S(=O)(=O)c2ccc(F)cc21", "values": [{"measurement": "pIC50", "setting": "[6]", "result": 5.49}, {"measurement": "pIC50", "setting": "[7]", "result": 5.17}]}
{"smiles": "CCOC(=O)c1ccc(N/C=C2/SC(=O)N(C(Cc3ccccc3)C(=O)OCC)C2=S)cc1", "note": "(centres undefined)", "values": [{"measurement": "pIC50", "setting": "[8]", "result": 7.57}, {"measurement": "pIC50", "setting": "[9]", "result": 7.04}, {"measurement": "selectivity ratio", "setting": "[10]", "result": 409}, {"measurement": "selectivity ratio", "setting": "[11]", "result": 1400}]}
{"smiles": "O=C(Nc1nc2cnc(Cl)nc2s1)c1ccc(Cl)cc1Cl", "values": [{"measurement": "pIC50", "setting": "[12]", "result": 6.30}]}
{"smiles": "CC(=O)OCC1O[C@@H](OC(C)=O)[C@H]([Se][Se]C2O[C@H](COC(C)=O)[C@H](OC(C)=O)[C@H](OC(C)=O)[C@H]2OC(C)=O)[C@@H](OC(C)=O)[C@H]1OC(C)=O", "note": "(some centres undefined)", "values": [{"measurement": "pIC50", "setting": "[13]", "result": 5.48}]}
{"smiles": "CC(=O)N1N=C(c2cccs2)CC1c1cc(-c2ccc(C)cc2)nn1-c1ccccc1", "note": "(centres undefined)", "values": [{"measurement": "pIC50", "setting": "[14]", "result": 5.65}, {"measurement": "pIC50", "setting": "[15]", "result": 6.80}]}
{"smiles": "O=C(Nc1nc2cnc(Cl)nc2s1)c1ccc(Cl)cc1", "values": [{"measurement": "pIC50", "setting": "[12]", "result": 5.12}]}
{"smiles": "NS(=O)(=O)c1ccc(O)c([N+](=O)[O-])c1", "values": [{"measurement": "pIC50", "setting": "[16]", "result": 4.01}]}
{"smiles": "NCCSc1ccnc2cc(Cl)ccc12", "values": [{"measurement": "pIC50", "setting": "[17]", "result": 4.28}, {"measurement": "pIC50", "setting": "[18]", "result": 4.40}]}
{"smiles": "COc1cc(C2=NN(c3ccccc3)C(c3sc(N(CCCl)CCCl)nc3Cl)C2)cc(OC)c1OC", "note": "(centres undefined)", "values": [{"measurement": "selectivity ratio", "setting": "[19]", "result": 1.48}, {"measurement": "pIC50", "setting": "[7]", "result": 4.86}]}
{"smiles": "ClCCN(CCCl)c1nc(Cl)c(C2CC(c3ccc(Br)cc3)=NN2c2ccccc2)s1", "note": "(centres undefined)", "values": [{"measurement": "selectivity ratio", "setting": "[19]", "result": 1.6}, {"measurement": "pIC50", "setting": "[7]", "result": 4.96}]}
{"smiles": "OCCSc1ccnc2cc(Cl)ccc12", "values": [{"measurement": "pIC50", "setting": "[17]", "result": "< 4.00"}, {"measurement": "pIC50", "setting": "[18]", "result": "< 4.00"}]}
{"smiles": "Cc1ccc([Te]Cc2ncc(-c3ccc(S(C)(=O)=O)cc3)[se]2)cc1", "values": [{"measurement": "pIC50", "setting": "[20]", "result": 5.21}]}
{"smiles": "CCc1cc(-c2csc(-c3ccc(-n4ccnc4CNCCN)cc3OCCN3CCNC3=O)n2)cc2ccccc12", "values": [{"measurement": "pIC50", "setting": "[3]", "result": 5.29}]}
{"smiles": "O=[N+]([O-])c1ccc(-c2nnc(NCCCO)s2)s1", "values": [{"measurement": "selectivity ratio", "setting": "[21]", "result": 14}]}
{"smiles": "CCOC(=O)C(Cc1ccccc1)N1C(=O)S/C(=C/Nc2cc(S(=O)(=O)N3CCOCC3)ccc2C)C1=S", "note": "(centres undefined)", "values": [{"measurement": "pIC50", "setting": "[8]", "result": 6.70}, {"measurement": "pIC50", "setting": "[9]", "result": 6.17}, {"measurement": "selectivity ratio", "setting": "[10]", "result": "> 255"}, {"measurement": "selectivity ratio", "setting": "[11]", "result": "> 870"}]}
{"smiles": "N=C(N)c1ccc2nc(-c3ccc(-c4ccc(OCCc5cn(Cc6cccc7ccccc67)nn5)cc4)s3)[nH]c2c1", "values": [{"measurement": "pIC50", "setting": "[4]", "result": 5.67}, {"measurement": "IC90", "setting": "[5]", "result": 5.78, "unit": "µM"}]}
{"smiles": "Fc1ccc(-c2nnc(N/N=C/c3ccccn3)s2)cc1", "values": [{"measurement": "pIC50", "setting": "[22]", "result": 5.03}, {"measurement": "selectivity ratio", "setting": "[23]", "result": 6}]}
{"smiles": "C(=N\\Nc1nnc(-c2ccccn2)s1)/c1ccccn1", "values": [{"measurement": "pIC50", "setting": "[22]", "result": 5.02}, {"measurement": "selectivity ratio", "setting": "[23]", "result": 7.7}]}
{"smiles": "Cc1ccc(-c2cc(C3CC(c4cccs4)=NN3)n(-c3ccccc3)n2)cc1", "note": "(centres undefined)", "values": [{"measurement": "pIC50", "setting": "[14]", "result": 5.97}, {"measurement": "pIC50", "setting": "[15]", "result": 5.68}]}
{"smiles": "O=C1c2ccccc2C(=O)N1Nc1nc(-c2ccc(Cl)cc2Cl)cs1", "values": [{"measurement": "selectivity ratio", "setting": "[24]", "result": 6.4}]}
{"smiles": "COCCCNc1nnc(-c2ccc([N+](=O)[O-])s2)s1", "values": [{"measurement": "selectivity ratio", "setting": "[21]", "result": 2}]}
{"smiles": "O=C1c2ccccc2C(=O)N1Nc1nc(-c2ccc3ccccc3c2)cs1", "values": [{"measurement": "selectivity ratio", "setting": "[24]", "result": 12.5}]}
{"smiles": "CC(=O)OCC1OC([Se][Se]C2O[C@H](COC(C)=O)[C@@H](OC(C)=O)[C@@H](OC(C)=O)[C@H]2OC(C)=O)[C@H](OC(C)=O)[C@@H](OC(C)=O)C1OC(C)=O", "note": "(some centres undefined)", "values": [{"measurement": "pIC50", "setting": "[13]", "result": 5.57}]}
